Tests used:
IRAK4 = IRAK4 (Homo sapiens (Human), UniProt Q9NWZ3); experiment: IRAK4 Inhibition Assay; type: biochemical; details: ATP 500 μM; IRAK4 0.6 nM
Procedure, shortened: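 Mobility-shift readout: phosphorylated and unphosphorylated fluorescent peptide (1.5 μM) resolved by electrophoresis after a 60 min room-temperature reaction stopped with EDTA. Reaction holds 0.6 nM IRAK4, 500 μM ATP and 1.6% DMSO in HEPES pH 7.2/MgCl2/Brij 35/DTT buffer; percent inhibition set against vehicle and no-enzyme controls.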

Caco Permeability Assay = type: in vitro ADME; details: human, Caco-2, Caco-2 cells, 3 μM compound
Protocol: Thirteen to 27 days prior to assay, Caco-2 cells were seeded onto collagen-coated polycarbonate filter membranes in 24-well transwell plates at a density of 1.45×10^5 cells/cm^2, approximately 4.8×10^4 cells per well. The cells were grown in a culture medium consisting of DMEM supplemented with 10% fetal bovine serum, 10 mM HEPES, 1% nonessential amino acids, 2 mM L-glutamine, 100 U/mL penicillin-G, and 100 μg/mL streptomycin. The culture medium was replaced every 3 days and the cells were maintained at 37° C. in a 95% relative humidity and 5% CO2 atmosphere. The cells were evaluated for tight junction formation just prior to assay. The test compound was solubilized to 10 mM in 100% DMSO and diluted to 3 μM in assay buffer. Permeability studies were initiated by adding 200 μL assay buffer plus/minus compound to the apical transwell compartment and 600 μL assay buffer plus/minus compound to the basolateral compartment of the 24-well transwell low-binding cluster plate. For apical-to-basolateral (A to B) permeability (absorptive direction), buffer containing compound was placed in the apical compartment (donor wells), while buffer alone was placed in the corresponding basolateral compartments (receiver wells). For basolateral-to-apical (B to A) permeability (secretive direction), buffer containing compound was placed in the basolateral compartment (donor wells), while buffer alone was placed in the corresponding apical compartments (receiver wells). Transwells were then incubated for 2 hours at 37° C. in a 95% relative humidity and 5% CO2 atmosphere with gentle agitation. Following incubation, 100 μL was removed from each apical and basolateral compartment and transferred to 96-well low binding plates that had been previously loaded with 100 µL/well of acetonitrile containing 250 nM propranolol, 250 nM diclofenac, and 500 nM tolbutamide as internal standards. The samples were subsequently analyzed by LC-MS/MS to determine concentrations of compound.

[1] = system: IL-6 levels in human whole blood stimulated with a TLR2 agonist; experiment: IRAK4 Whole Blood Assay (lipoteichoic acid/TLR2-stimulated IL-6); type: cell-based; details: lipoteichoic acid 10 μg/mL, IL-6 readout
Procedure, shortened: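 ACD-A-anticoagulated human whole blood was preincubated with compounds for 60 min at 37 °C under 5% CO2. It was then stimulated with 10 μg/mL lipoteichoic acid (final) in RPMI for 5 h. IL-6 in plasma supernatants was measured by flow cytometry bead assay.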

Sequence of IRAK4 (Q9NWZ3 whole entry): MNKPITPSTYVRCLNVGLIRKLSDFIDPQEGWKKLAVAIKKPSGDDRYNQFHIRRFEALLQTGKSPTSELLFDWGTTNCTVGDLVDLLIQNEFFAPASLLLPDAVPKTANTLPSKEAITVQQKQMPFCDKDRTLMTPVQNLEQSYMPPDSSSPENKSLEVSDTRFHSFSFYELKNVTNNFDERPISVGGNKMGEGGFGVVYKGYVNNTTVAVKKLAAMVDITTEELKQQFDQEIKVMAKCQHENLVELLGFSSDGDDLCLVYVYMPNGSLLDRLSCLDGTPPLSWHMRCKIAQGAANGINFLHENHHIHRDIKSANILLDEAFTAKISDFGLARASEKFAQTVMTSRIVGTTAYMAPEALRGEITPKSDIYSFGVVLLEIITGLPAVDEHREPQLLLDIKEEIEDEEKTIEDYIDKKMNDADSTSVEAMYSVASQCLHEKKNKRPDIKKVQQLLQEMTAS

| IC50 (IRAK4) [nM] | Papp at 2 h, 3 µM (Caco Permeability Assay) [×10⁻⁶ cm/s] | EC50 ([1]; Homo sapiens) [nM] | EC50 [1] [nM] | SMILES |
| --- | --- | --- | --- | --- |
| 4 | 12.6 | 3470 | – | CC(C)(O)[C@H](F)CNC(=O)c1cnc(-c2cnn3cc(Cl)cnc23)cc1NC1CC(F)(F)C1 [Example 65, (R)-6-(6-chloropyrazolo[1,5-a]pyrimidin-3-yl)-4-((3,3-difluorocyclobutyl)amino)-N-(2-fluoro-3-hydroxy-3-methylbutyl)nicotinamide] |
| 2 | 18.4 | 3080 | – | CC(C)(O)[C@H](F)CNC(=O)c1cnc(-c2cnn3cc(Cl)cnc23)cc1NC1CCCC1 [Example 67, (R)-6-(6-chloropyrazolo[1,5-a]pyrimidin-3-yl)-4-(cyclopentylamino)-N-(2-fluoro-3-hydroxy-3-methylbutyl)nicotinamide] |
| 2 | < 1.5 | 420 | – | CC(C)(O)[C@H](F)CNC(=O)c1cnc(-c2cnn3cc(Cl)cnc23)cc1NC1CCN(S(C)(=O)=O)CC1 [Example 68, (R)-6-(6-chloropyrazolo[1,5-a]pyrimidin-3-yl)-N-(2-fluoro-3-hydroxy-3-methylbutyl)-4-((1-(methylsulfonyl)piperidin-4-yl)amino) nicotinamide] |
| 3 | 7.3 | 840 | – | CC[C@@H](C)Nc1cc(-c2cnn3cc(Cl)cnc23)ncc1C(=O)NC[C@@H](F)C(C)(C)O [Example 70, 4-(((R)-sec-butyl)amino)-6-(6-chloropyrazolo[1,5-a]pyrimidin-3-yl)-N—((R)-2-fluoro-3-hydroxy-3-methylbutyl)nicotinamide] |
| 1 | 1.7 | 70 | – | CC(C)(O)[C@H](F)CNC(=O)c1cnc(-c2cnn3cc(Cl)cnc23)cc1Nc1cnn(CC(F)F)c1 [Example 71, (R)-6-(6-chloropyrazolo[1,5-a]pyrimidin-3-yl)-4-((1-(2,2-difluoroethyl)-1H-pyrazol-4-yl)amino)-N-(2-fluoro-3-hydroxy-3-methylbutyl)nicotinamide] |
| 2 | < 1.5 | 710 | – | CC(C)(O)[C@H](F)CNC(=O)c1cnc(-c2cnn3cc(Cl)cnc23)cc1NC12CCC(O)(CC1)C2 [Example 73, (R)-6-(6-chloropyrazolo[1,5-a]pyrimidin-3-yl)-N-(2-fluoro-3-hydroxy-3-methylbutyl)-4-((4-hydroxybicyclo[2.2.1]heptan-1-yl)amino)nicotinamide] |
| 6 | < 1.5 | 580 | – | CC(O)CCNc1cc(-c2cnn3cc(Cl)cnc23)ncc1C(=O)NC[C@@H](F)C(C)(C)O (stereo partly drawn) [Example 82, 6-(6-chloropyrazolo[1,5-a]pyrimidin-3-yl)-N—((R)-2-fluoro-3-hydroxy-3-methylbutyl)-4-((3-hydroxybutyl)amino)nicotinamide] |
| 1 | 15.9 | – | 810 | CC(C)(O)[C@H](F)CNC(=O)c1cnc(-c2cnn3cc(Cl)cnc23)cc1NC1CCC(F)C1 (stereo partly drawn) [Example 83, 6-(6-chloropyrazolo[1,5-a]pyrimidin-3-yl)-N—((R)-2-fluoro-3-hydroxy-3-methylbutyl)-4-((3-fluorocyclopentyl)amino)nicotinamide] |
| 2 | 5.6 | 250 | – | CC(C)Nc1cc(-c2cnn3cc(C#N)cnc23)ncc1C(=O)NC[C@@H](F)C(C)(C)O [Example 87, (R)-6-(6-cyanopyrazolo[1,5-a]pyrimidin-3-yl)-N-(2-fluoro-3-hydroxy-3-methylbutyl)-4-(isopropylamino)nicotinamide] |
| 4 | 2.8 | 400 | – | CC(C)(O)[C@H](F)CNC(=O)c1cnc(-c2cnn3cc(C#N)cnc23)cc1NC1CCOCC1 [Example 90, (R)-6-(6-cyanopyrazolo[1,5-a]pyrimidin-3-yl)-N-(2-fluoro-3-hydroxy-3-methylbutyl)-4-((tetrahydro-2H-pyran-4-yl)amino)nicotinamide] |
| 20 | 7.4 | 720 | – | CC(C)(O)[C@H](F)CNC(=O)c1cnc(-c2cnn3cc(C#N)cnc23)cc1NC1CC1 [Example 92, (R)-6-(6-cyanopyrazolo[1,5-a]pyrimidin-3-yl)-4-(cyclopropylamino)-N-(2-fluoro-3-hydroxy-3-methylbutyl) nicotinamide] |
| 6 | 7.2 | 1660 | – | CCNc1cc(-c2cnn3cc(C#N)cnc23)ncc1C(=O)NC[C@@H](F)C(C)(C)O [Example 93, (R)-6-(6-cyanopyrazolo[1,5-a]pyrimidin-3-yl)-4-(ethylamino)-N-(2-fluoro-3-hydroxy-3-methylbutyl)nicotinamide] |
| 4 | 8 | 1600 | – | CC[C@@H](C)Nc1cc(-c2cnn3cc(C#N)cnc23)ncc1C(=O)NC[C@@H](F)C(C)(C)O [Example 97, 4-(((R)-sec-butyl)amino)-6-(6-cyanopyrazolo[1,5-a]pyrimidin-3-yl)-N—((R)-2-fluoro-3-hydroxy-3-methylbutyl)nicotinamide] |
| 7 | 16.2 | 800 | – | CC(C)Nc1cc(-c2cnn3cc(C#N)cnc23)ncc1C(=O)N[C@H]1CC[C@H](C(C)(C)O)CC1 [Example 104, 6-(6-cyanopyrazolo[1,5-a]pyrimidin-3-yl)-N-((1r,4r)-4-(2-hydroxypropan-2-yl)cyclohexyl)-4-(isopropylamino)nicotinamide] |
| 7 | 8.6 | 240 | – | CC(C)(O)[C@H](F)CNC(=O)c1cnc(-c2cnn3cc(C#N)cnc23)cc1N[C@@H]1CCC[C@@H]1F [Example 105, 6-(6-cyanopyrazolo[1,5-a]pyrimidin-3-yl)-N—((R)-2-fluoro-3-hydroxy-3-methylbutyl)-4-(((1R,2S)-2-fluorocyclopentyl)amino) nicotinamide] |
| 4 | 7 | 1030 | – | CC(CCF)Nc1cc(-c2cnn3cc(C#N)cnc23)ncc1C(=O)NC[C@@H](F)C(C)(C)O (stereo partly drawn) [Example 106, 6-(6-cyanopyrazolo[1,5-a]pyrimidin-3-yl)-N—((R)-2-fluoro-3-hydroxy-3-methylbutyl)-4-((4-fluorobutan-2-yl)amino)nicotinamide] |
| 3 | < 1.5 | 270 | – | CNC(=O)c1ccc(Nc2cc(-c3cnn4cc(C#N)cnc34)ncc2C(=O)NC[C@@H](F)C(C)(C)O)cc1 [Example 110, (R)-6-(6-cyanopyrazolo[1,5-a]pyrimidin-3-yl)-N-(2-fluoro-3-hydroxy-3-methylbutyl)-4-((4-(methylcarbamoyl)phenyl)amino) nicotinamide] |
| 6 | < 1.5 | 2030 | – | COc1cnc(N2CC[C@@H](Nc3cc(-c4cnn5cc(C#N)cnc45)ncc3C(=O)NC[C@@H](F)C(C)(C)O)C2)nc1 [Example 115, 6-(6-cyanopyrazolo[1,5-a]pyrimidin-3-yl)-N—((R)-2-fluoro-3-hydroxy-3-methylbutyl)-4-(((R)-1-(5-methoxypyrimidin-2-yl)pyrrolidin-3-yl)amino)nicotinamide] |
| 17 | 22.1 | 1890 | – | CC(C)Nc1cc(-c2cnn3cc(F)cnc23)ncc1C(=O)NC[C@@H](F)C(C)(C)O [Example 130, (R)—N-(2-fluoro-3-hydroxy-3-methylbutyl)-6-(6-fluoropyrazolo[1,5-a]pyrimidin-3-yl)-4-(isopropylamino)nicotinamide] |
| 4 | 5.2 | 490 | – | CC(C)(O)[C@H](F)CNC(=O)c1cnc(-c2cnc3cc(Cl)cnn23)cc1NC1COC1 [Example 141, (R)-6-(7-chloroimidazo[1,2-b]pyridazin-3-yl)-N-(2-fluoro-3-hydroxy-3-methylbutyl)-4-(oxetan-3-ylamino)nicotinamide] |
| 3 | 19 | 100 | – | CC(C)Nc1cc(-c2cnc3cc(Cl)cnn23)ncc1C(=O)NC[C@@H](F)C(C)(C)O [Example 142, (R)-6-(7-chloroimidazo[1,2-b]pyridazin-3-yl)-N-(2-fluoro-3-hydroxy-3-methylbutyl)-4-(isopropylamino)nicotinamide] |

Reference: patent US10618903B2, “Heteroaryl substituted aminopyridine compounds” (BRISTOL-MYERS SQUIBB COMPANY, priority 2015, dated 2020)
